Source: patent US20240158446A1, “CYCLIC COMPOUND HAVING SELECTIVE INHIBITORY ACTION ON KRAS OVER HRAS AND NRAS” (CHUGAI SEIYAKU KABUSHIKI KAISHA, priority 2021, published 2024)
pKd: −log10 of the molar value. Where two headings read alike, the source gives them in different places. Where a SMILES comes first, the peptide text is derived from it. Bridges are numbered along the chain shown (N, C = ends). [ ]: non-standard residue; d: D form. The star is where a group is joined. hPhe(3-Cl-4-CF3) = N[C@@H](CCc1ccc(C(F)(F)F)c(Cl)c1)C(=O)O; NPrPhe(4-CF3) = CCCN[C@@H](Cc1ccc(C(F)(F)F)cc1)C(=O)O; NEtPhe(4-CF3) = CCN[C@@H](Cc1ccc(C(F)(F)F)cc1)C(=O)O; hPhe(3,4-Cl2) = N[C@@H](CCc1ccc(Cl)c(Cl)c1)C(=O)O; NEtPhe(4-Me) = CCN[C@@H](Cc1ccc(C)cc1)C(=O)O; NMeGly(cPent) = CN[C@H](C(=O)O)C1CCCC1; Hyp = O=C(O)[C@@H]1C[C@@H](O)CN1; NMeD = CN[C@@H](CC(=O)O)C(=O)O; NMeL = CN[C@@H](CC(C)C)C(=O)O; Morpholide = C1CN(*)CCO1; NMeA = CN[C@@H](C)C(=O)O; Ac5c = NC1(C(=O)O)CCCC1; Aze = O=C(O)[C@@H]1CCN1; Sar = CNCC(=O)O

How the values were obtained:
[1] = biological target: GDP-bound HRAS wild-type protein (Homo sapiens, UniProt P01112); experiment: Binding to HRAS by surface plasmon resonance (SPR), Single Cycle Kinetics; settings: for HRAS/KRAS (ratio of KD value with respect to HRAS to KD value with respect to KRAS) / HRAS/KRAS (ratio of KD value for HRAS to KD value for KRAS): SPR, GDP-bound HRAS wild-type protein vs GDP-bound KRAS wild-type protein
Chain of GDP-bound HRAS wild-type protein (P01112 whole entry): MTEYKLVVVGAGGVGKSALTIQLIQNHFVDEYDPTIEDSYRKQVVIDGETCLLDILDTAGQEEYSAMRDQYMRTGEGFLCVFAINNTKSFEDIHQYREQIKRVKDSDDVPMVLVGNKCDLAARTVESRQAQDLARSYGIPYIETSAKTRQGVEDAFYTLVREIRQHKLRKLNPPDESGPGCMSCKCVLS

[2] = biological target: GDP-bound NRAS wild-type protein (Homo sapiens, UniProt P01111); experiment: Binding to NRAS by surface plasmon resonance (SPR), Single Cycle Kinetics; settings: for NRAS/KRAS (ratio of KD value with respect to NRAS to KD value with respect to KRAS) / NRAS/KRAS (ratio of KD value for NRAS to KD value for KRAS): SPR, GDP-bound NRAS wild-type protein vs GDP-bound KRAS wild-type protein
Chain of GDP-bound NRAS wild-type protein (P01111 whole entry): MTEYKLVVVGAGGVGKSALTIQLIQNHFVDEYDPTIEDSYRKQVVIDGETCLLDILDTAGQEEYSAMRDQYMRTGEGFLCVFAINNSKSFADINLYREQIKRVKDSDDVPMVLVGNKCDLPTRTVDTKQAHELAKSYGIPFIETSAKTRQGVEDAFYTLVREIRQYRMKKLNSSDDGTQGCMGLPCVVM

[3] = biological target: GDP-bound KRAS wild-type protein (Homo sapiens, UniProt P01116); experiment: Binding to KRAS by surface plasmon resonance (SPR), Single Cycle Kinetics; settings: GDP-bound KRAS wild-type protein, read-out: KRAS KD
Chain of GDP-bound KRAS wild-type protein (P01116 whole entry): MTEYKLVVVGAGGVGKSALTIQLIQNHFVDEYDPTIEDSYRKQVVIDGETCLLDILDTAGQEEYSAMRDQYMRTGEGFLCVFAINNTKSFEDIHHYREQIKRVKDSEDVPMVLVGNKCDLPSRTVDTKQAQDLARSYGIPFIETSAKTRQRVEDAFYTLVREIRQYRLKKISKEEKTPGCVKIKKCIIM

[4] = SPR Single Cycle Kinetics, 1:1 binding model

SMILES | HRAS/KRAS (ratio of KD value with respect to HRAS to KD value with respect to KRAS) [1] | NRAS/KRAS (ratio of KD value with respect to NRAS to KD value with respect to KRAS) [2] | pKd [3, 4] | HRAS/KRAS (ratio of KD value for HRAS to KD value for KRAS) [1] | NRAS/KRAS (ratio of KD value for NRAS to KD value for KRAS) [2] | pKd ([3]; SPR, Single Cycle Kinetics) | HRAS/KRAS (ratio of KD value with respect to GDP-bound HRAS wild-type protein to KD value with respect to KRAS) ([1]; SPR KD ratio HRAS/KRAS, class symbols) | NRAS/KRAS (ratio of KD value with respect to GDP-bound NRAS wild-type protein to KD value with respect to KRAS) ([2]; SPR KD ratio NRAS/KRAS, class symbols)
CC[C@H](C)[C@@H]1NC(=O)[C@H](CC(C)C)N(C)C(=O)C[C@@H](C(=O)N2CCOCC2)N(C)C(=O)[C@H](C2CCCC2)N(C)C(=O)C2(CCCCC2)NC(=O)[C@@H]2CCCN2C(=O)[C@H](CCc2cc(F)c(C(F)(F)F)c(F)c2)NC(=O)CN(C)C(=O)[C@H](Cc2ccc(C(F)(F)F)cc2)N2CCCCC[C@@H](C2=O)N(C)C(=O)CN(C)C1=O [PP0498] | B (a compound having 3 or more and less than 10 is denoted as B) | B (a compound having 3 or more and less than 10 is denoted as B) | 7.74 | – | – | – | – | –
CC[C@H](C)[C@@H]1NC(=O)[C@H](CC)N(C)C(=O)C[C@@H](C(=O)N(C)C)N(C)C(=O)[C@H](C2CCCC2)N(C)C(=O)C2(CCC2)NC(=O)[C@@H]2C[C@H](OC)CN2C(=O)[C@H](CCc2cc(F)c(C(F)(F)F)c(F)c2)NC(=O)CN(C)C(=O)[C@H](Cc2ccc(C(F)(F)F)cc2)N2CC/C=C\C[C@@H](C2=O)N(C)C(=O)CN(C)C1=O [PP1128, (2S,8S,12S,14S,20S,23S,27S,30S,36S,38Z)-20-cyclopentyl-8-[2-[3,5-difluoro-4-(trifluoromethyl)phenyl]ethyl]-27-ethyl-12-methoxy-N,N,4,19,22,26,32,35-octamethyl-30-[(1S)-1-methylpropyl]-3,6,9,15,18,21,25,28,31,34,42-undecaoxo-2-[[4-(trifluoromethyl)phenyl]methyl]spiro[1,4,7,10,16,19,22,26,29,32,35-undecazatricyclo[34.5.1.0^10,14]dotetracont-38-ene-17,1′-cyclobutane]-23-carboxamide] | – | – | – | A (a compound having 10 or more and less than 20 is denoted as A) | AA (a compound having 20 or more is denoted as AA) | 9.92 | – | –
CCCN1C(=O)CN(C)C(=O)[C@@H]2CCCN2C(=O)[C@H]([C@@H](C)CC)NC(=O)[C@H](CC(C)C)N(C)C(=O)C[C@@H](C(=O)N2CCOCC2)N(C)C(=O)[C@H](C2CCCC2)N(C)C(=O)C2(CCCC2)NC(=O)[C@@H]2CCCN2C(=O)[C@H](CCc2ccc(C(F)(F)F)c(Cl)c2)NC(=O)CN(C)C(=O)[C@@H]1Cc1ccc(C(F)(F)F)cc1 [PP0165] ([NMeL]IP[Sar][NPrPhe(4-CF3)][Sar][hPhe(3-Cl-4-CF3)]P[Ac5c][NMeGly(cPent)][NMeD]-Morpholide; lactam N-11) | – | – | 8.54 | B (a compound having 3 or more and less than 10 is denoted as B) | B (a compound having 3 or more and less than 10 is denoted as B) | – | – | –
CCO[C@@H]1C[C@H]2C(=O)NC3(CCCC3)C(=O)N(C)[C@@H](C3CCCC3)C(=O)N(C)[C@H](C(=O)N(C)C)CC(=O)N(C)[C@@H](CC(C)C)C(=O)N[C@@H]([C@@H](C)CC)C(=O)N(C)CC(=O)N(C)[C@H]3C/C=C\CCN(C3=O)[C@@H](Cc3ccc(C)cc3)C(=O)N(C)CC(=O)N[C@@H](CCc3ccc(C(F)(F)F)c(Cl)c3)C(=O)N2C1 [PP2195] | – | – | – | A (a compound having 10 or more and less than 20 is denoted as A) | A (a compound having 10 or more and less than 20 is denoted as A) | 10.02 | – | –
CCO[C@@H]1C[C@H]2C(=O)NC3(CC(C)(C)C3)C(=O)N(C)[C@@H](C(CC)CC)C(=O)N(C)[C@H](C(=O)N(C)C)CC(=O)N(C)[C@@H](CC)C(=O)N[C@@H]([C@@H](C)CC)C(=O)N(C)CC(=O)N(C)[C@H]3C/C=C\CCN(C3=O)[C@@H](Cc3ccc(C(F)(F)F)cc3)C(=O)N(C)CC(=O)N[C@@H](CCc3ccc(C(F)(F)F)c(OC)c3)C(=O)N2C1 [PP2066] | – | – | – | B (a compound having 3 or more and less than 10 is denoted as B) | A (a compound having 10 or more and less than 20 is denoted as A) | 9.60 | – | –
CCC[C@@H]1C[C@H]2C(=O)NC3(CCC3)C(=O)N(C)[C@@H](C3CCCC3)C(=O)N(C)[C@H](C(=O)N(C)C)CC(=O)N(C)[C@@H](CCC)C(=O)N[C@@H]([C@@H](C)CC)C(=O)N(C)CC(=O)N(C)[C@H]3C/C=C\CCN(C3=O)[C@@H](Cc3ccc(C)cc3)C(=O)N(C)CC(=O)N[C@@H](CCc3ccc(C(F)(F)F)c(Cl)c3)C(=O)N2C1 [PP2238] | – | – | – | A (a compound having 10 or more and less than 20 is denoted as A) | A (a compound having 10 or more and less than 20 is denoted as A) | 9.70 | – | –
CC[C@H](C)[C@@H]1NC(=O)[C@H](CC(C)C)N(C)C(=O)C[C@@H](C(=O)N2CCOCC2)N(C)C(=O)[C@H](C2CCCC2)N(C)C(=O)C2(CCCC2)NC(=O)[C@@H]2C[C@@H](O)CN2C(=O)[C@H](CCc2ccc(C(F)(F)F)c(Cl)c2)NC(=O)CN(C)C(=O)[C@H](Cc2ccc(C)cc2)N(CC)C(=O)[C@@H]2CCN2C(=O)[C@H](C)N(C)C1=O [PP0013] ([NMeL]I[NMeA][Aze][NEtPhe(4-Me)][Sar][hPhe(3-Cl-4-CF3)][Hyp][Ac5c][NMeGly(cPent)][NMeD]-Morpholide; lactam N-11) | – | – | 10.14 | C (A compound having a KD ratio of 0.1 or more and less than 3 is denoted as C) | C (A compound having a KD ratio of 0.1 or more and less than 3 is denoted as C) | – | – | –
CCO[C@@H]1C[C@H]2C(=O)NC3(CCC3)C(=O)N(C)[C@@H](C(CC)CC)C(=O)N(C)[C@H](C(=O)N3CCCC3)CC(=O)N(C)[C@H]3CCC/C=C/c4ccc(cc4)C[C@@H](C(=O)N(C)CC(=O)N[C@@H](CCc4cc(F)c(C(F)(F)F)c(F)c4)C(=O)N2C1)N1CC/C=C\C[C@@H](C1=O)N(C)C(=O)CN(C1CC1)C(=O)[C@H]([C@@H](C)CC)NC3=O [PP2957] | – | – | 9.64 | – | – | – | A (a compound having 10 or more and less than 20 is denoted as A) | AA (a compound having 20 or more is denoted as AA)
CCO[C@@H]1C[C@H]2C(=O)NC3(CC(C)(C)C3)C(=O)N(C)[C@@H](C3CCCC3)C(=O)N(C)[C@H](C(=O)N3CCCC3)CC(=O)N(C)[C@H]3CCCCCc4ccc(cc4)C[C@@H](C(=O)N(C)CC(=O)N[C@@H](CCc4ccc(C(F)(F)F)c(OC)c4)C(=O)N2C1)N1CC/C=C\C[C@@H](C1=O)N(C)C(=O)CN(C)C(=O)[C@H]([C@@H](C)CC)NC3=O [PP3037, (1S,7S,11R,13S,19S,22S,26S,29S,35S,37Z)-19-cyclopentyl-11-ethoxy-7-[2-[3-methoxy-4-(trifluoromethyl)phenyl]ethyl]-3,3′,3′,18,21,25,31,34-octamethyl-29-[(1S)-1-methylpropyl]-22-(pyrrolidine-1-carbonyl)spiro[3,6,9,15,18,21,25,28,31,34,41-undecazapentacyclo[24.15.10.2^43,46.1^35,41.0^9,13]tetrapentaconta-37,43(53),44,46(52)-tetraene-16,1′-cyclobutane]-2,5,8,14,17,20,24,27,30,33,54-undecone] | – | – | – | B (a compound having 3 or more and less than 10 is denoted as B) | A (a compound having 10 or more and less than 20 is denoted as A) | 9.96 | – | –
CC[C@H](C)[C@@H]1NC(=O)[C@H](CC(C)C)N(C)C(=O)C[C@@H](C(=O)N2CCOCC2)N(C)C(=O)[C@H](C2CCCC2)N(C)C(=O)C2(CCCC2)NC(=O)[C@@H]2CCCN2C(=O)[C@H](CCc2ccc(Cl)c(Cl)c2)NC(=O)CN(C)C(=O)[C@H](Cc2ccc(C(F)(F)F)cc2)N(CC)C(=O)[C@@H]2CCN2C(=O)[C@H](C)N(C)C1=O [PP0223] ([NMeL]I[NMeA][Aze][NEtPhe(4-CF3)][Sar][hPhe(3,4-Cl2)]P[Ac5c][NMeGly(cPent)][NMeD]-Morpholide; lactam N-11) | – | – | 9.40 | C (A compound having a KD ratio of 0.1 or more and less than 3 is denoted as C) | C (A compound having a KD ratio of 0.1 or more and less than 3 is denoted as C) | – | – | –
CCC[C@H]1C(=O)N[C@@H](C2CCOCC2)C(=O)N(C)CC(=O)N(C)[C@H]2C/C=C\CCN(C2=O)[C@@H](Cc2ccc(C(F)(F)F)cc2)C(=O)N(C)CC(=O)N[C@@H](CCc2ccc(C(F)(F)F)c(Cl)c2)C(=O)N2C[C@H](OCC)C[C@H]2C(=O)NC2(CC(C)(C)C2)C(=O)N(C)[C@@H](C2CCCC2)C(=O)N(C)[C@H](C(=O)N(C)C)CC(=O)N1C [PP3000] | – | – | – | A (a compound having 10 or more and less than 20 is denoted as A) | AA (a compound having 20 or more is denoted as AA) | 8.89 | – | –
CCO[C@@H]1C[C@H]2C(=O)NC3(CCC3)C(=O)N(C)[C@@H](C3CCCC3)C(=O)N(C)[C@H](C(=O)N3CCOCC3)CC(=O)N(C)[C@@H](C)C(=O)N[C@@H]([C@@H](C)CC)C(=O)N(C)CC(=O)N(C)[C@H]3CCCCCN(C3=O)[C@@H](Cc3ccc(C(F)(F)F)cc3)C(=O)N(C)CC(=O)N[C@@H](CCc3cc(F)c(C(F)(F)F)c(F)c3)C(=O)N2C1 [PP0474] | B (a compound having 3 or more and less than 10 is denoted as B) | B (a compound having 3 or more and less than 10 is denoted as B) | 9.20 | – | – | – | – | –
